Test results as given in the NIST ThermoML archive (doi:10.1021/je050498q).

Test: refractive index (Na D-line) (dimensionless); wn = mass fraction of the nth substance listed
Details: 101 kPa, Liquid

O=C([O-])[C@H](O)[C@@H](O)C(=O)[O-].[Na+].[Na+] [disodium L-tartrate] + O
refractive index
Details | 298.15 K | 308.15 K | 318.15 K
w1 = 0.0099 | 1.3343 | 1.3331 | 1.3318
w1 = 0.0192 | 1.336 | 1.3346 | 1.3335
w1 = 0.0282 | 1.3373 | 1.3363 | 1.3351
w1 = 0.0371 | 1.3389 | 1.3378 | 1.3367
w1 = 0.046 | 1.3405 | 1.3393 | 1.3381
w1 = 0.0547 | 1.3418 | 1.3408 | 1.3396
w1 = 0.0625 | 1.3432 | 1.3421 | 1.341
w1 = 0.0714 | 1.3447 | 1.3435 | 1.3425
w1 = 0.0793 | 1.346 | 1.3449 | 1.3439
w1 = 0.0872 | 1.3475 | 1.3462 | 1.3452
w1 = 0.0948 | 1.3486 | 1.3475 | 1.3464
w1 = 0.1026 | 1.3502 | 1.3488 | 1.3479
w1 = 0.1098 | 1.3511 | 1.35 | 1.349
w1 = 0.1169 | 1.3526 | 1.3512 | 1.3502
w1 = 0.1223 | 1.3535 | 1.3523 | 1.3513
w1 = 0.1314 | 1.3551 | 1.3537 | 1.3526
w1 = 0.1361 | 1.3557 | 1.3545 | 1.3536
w1 = 0.1437 | 1.3572 | 1.356 | 1.3548
w1 = 0.1514 | 1.3584 | 1.3572 | 1.3562
w1 = 0.1577 | 1.3594 | 1.3582 | 1.3573
w1 = 0.1646 | 1.3607 | 1.3596 | 1.3587
w1 = 0.1697 | 1.3616 | 1.3606 | 1.3595
w1 = 0.1769 | 1.363 | 1.3617 | 1.3607
w1 = 0.1825 | 1.3639 | 1.3627 | 1.3616
w1 = 0.1886 | 1.3649 | 1.3637 | 1.3627
w1 = 0.1941 | 1.366 | 1.3646 | 1.3636
w1 = 0.1996 | 1.3668 | 1.3655 | 1.3644
w1 = 0.2048 | 1.3677 | 1.3664 | 1.3654
w1 = 0.2116 | 1.3689 | 1.3675 | 1.3666
w1 = 0.2167 | 1.3697 | 1.3685 | 1.3675
w1 = 0.2221 | 1.3707 | 1.3696 | 1.3684
w1 = 0.2281 | 1.3719 | 1.3707 | 1.3695
w1 = 0.2328 | 1.3728 | 1.3715 | 1.3703
w1 = 0.243 | 1.3744 | 1.3731 | 1.372
w1 = 0.2493 | 1.3755 | 1.3744 | 1.3732
w1 = 0.2577 | 1.377 | 1.3759 | 1.3749
w1 = 0.2622 | 1.3778 | 1.3765 | 1.3757
w1 = 0.2681 | 1.379 | 1.3777 | 1.3765
w1 = 0.2757 | 1.3802 | 1.3791 | 1.3778
w1 = 0.2859 | 1.3821 | 1.3809 | 1.3798
w1 = 0.2979 | 1.384 | 1.3829 | 1.3819
w1 = 0.3085 | 1.3861 | 1.3848 | 1.3841
